According to patent US11806344B2, “Pharmaceutical composition comprising mineralocorticoid receptor antagonist and use thereof” (priority 2016, dated 2023):
Entries after “also recorded” stand apart in the source; their conditions may differ. Where two headings read alike, the source gives them in different places.

Assays:
[1] = tested on: Dahl/ss rats with salt induced renal injury; test: Efficacy test in salt-sensitive rats with salt induced renal injury (Example 6); type: in vivo; details: Dahl/ss rats on 4% NaCl diet
Procedure: Animals: Male Dahl/Ss Rats
Solid dispersions of Compound I (Compound I:PVPK30=1:8 (w/w)): Solid dispersions of Compound I was formulated with suitable amount of sterile water for injection into suspensions having concentrations of 0.03, 0.10, 0.30 and 1.00 mg/mL, respectively. The suspensions were prepared immediately before use. […]
One week before the experiment, the blood pressures were measured twice in rats by the tail-cuff blood pressure measurement so that rats could accommodate to the blood pressure monitoring operation. Then, immediately before the test, the blood pressure was determined and used as the baseline value. […]
Blood pressure (systolic blood pressure, SBP) measurement: Blood pressure was measured for 6 weeks, once a week, and the blood pressure changes in these groups were analyzed.
Pathological examination for the kidney and heart: At the end of the study, rats were sacrificed painlessly, from which bilateral kidneys and the heart were collected for histopathological analysis. The kidneys were stained using Hematoxylin-Eosin (HE) to semi-quantitatively evaluate renal injuries. The thickness of the left ventricular wall was measured for each heart to analyze the heart injury. […]

[2] = Safety, tolerability and pharmacokinetics in healthy subjects, multiple doses (Example 8); type: in vivo, human; details: human, plasma, oral, healthy subjects, 14 days, read-out: average steady-state AUC0-24 (AUCtau)
Procedure: (§1) Two groups of healthy subjects were given capsules once a day at daily doses of 2.5 mg (1 capsule for each administration, 2.5 mg of Compound I per capsule), and 5.0 mg (2 capsules for each administration, 2.5 mg of Compound I per capsule), respectively, each group containing 6 subjects. The administration continued for 14 consecutive days. The capsules used in this study were of Capsule formulation 4 prepared in Example 2.
(§2) Plasma samples were collected to measure plasma drug concentration, and the pharmacokinetic parameters were analyzed using the non-compartment model. Serum samples were collected to measure serum potassium levels.

[3] = tested on: healthy subjects; test: as above; type: in vivo, human; details: for average steady-state AUC0-24 (AUCtau): 14 days
Procedure: as §1, §2

[4] = Safety, tolerability and pharmacokinetics in patients having chronic kidney disease (Example 9); type: in vivo, human; details: human, plasma, oral, CKD patients
From the text: (§3) The patients in this example were those having chronic kidney disease with symptoms of renal failure, proteinuria, acute kidney injury, glomerular nephritis, renal cyst, urinary frequency, renal calculus, obstructive uropathy, and etc. These patients also had other diseases or implications such as diabetes mellitus, hyperlipidemia, hypercholesterolemia, hypertension, peripheral vascular diseases, coronary artery disease, and etc.
(§4) These patients continued to take the medications that they had prior to the present clinical trial, the medications being, for example, angiotensin converting enzyme inhibitors, such as Lisinopril, Benazepril, Enalapril, and Enalapril Maleate; angiotensin II receptor blockers, such as Valsartan and Losartan; calcium channel blockers, such as Amlodipine, and Nifedipine; diuretics, such as Furosemide; beta-receptor blockers, such as Metoprolol succinate, Metoprolol tartrate, Carvedilol, and Atenolol; and antilipemic drugs, such as Simvastatin, Atorvastatin, Fenofibrate, Pravastatin, and Rosuvastatin.
(§5) In this example, the administration dose referred to the amount of Compound I, although the pharmaceutical composition was administered. Two groups of subjects were administered once a day for 56 consecutive days at the daily doses of 0.5 mg (1 capsule for each administration, 0.5 mg of Compound I per capsule) and 2.5 mg (1 capsule for each administration, 2.5 mg of Compound I per capsule), respectively, with 6 subjects for the 0.5 mg/day dose group and also 6 for the 2.5 mg/day dose group. The capsules used here were the capsules prepared in Example 2, i.e., the capsules of Capsule formulation 3 (the capsule with 0.5 mg of Compound I), and Capsule formulation 4 (the capsule containing 2.5 mg of Compound I).
as §2

[5] = tested on: patients having chronic kidney disease; test: as above; type: in vivo, human; details: CKD patients; for UACR decreased: at the 8th week; for Predicated AUCtau: predicted from the 0.5 mg/day group
From the text: as §3, §4, §5, §2

[6] = Water solubility and permeation of Compound I (statement); type: physicochemical
[7] = healthy subjects, multiple doses 2.5 mg/day

N#Cc1ccc(N2N=C3c4ccc(C(=O)N5CCC(O)CC5)nc4CC[C@@H]3[C@@H]2C2CCCC2)cc1Cl [Compound I, 2-chloro-4-[(3S,3aR)-3-cyclopentyl-7-(4-hydroxylpiperidine-1-carbonyl)-3,3a,4,5-tetrahydro-2H-pyrazolo[3,4-f]quinolin-2-yl]benzonitrile]
AUC0-24 at which the drug takes effect (undulation point of SBP or UACR vs AUC0-24 curve) ([1]; 0.3-10 mg/kg/day intragastric twice a day, 42 days): 100 ng·h/mL | SBP and UACR change (observation) ([1]; beyond AUC of 100 h*ng/mL): SBP and UACR were significantly decreased | AUC(0-t) ([2]; 2.5 mg/day, multiple doses 2.5 mg/day): 2860 ± 821 ng·h/mL | AUC(0-t) ([2]; 5 mg/day, multiple doses 5.0 mg/day): 6380 ± 1030 ng·h/mL | serum potassium level (observation) ([3]; healthy subjects (6), multiple doses 5.0 mg/day): transient elevated serum potassium level observed in three subjects; also recorded: elevated serum potassium levels were observed in 3 subjects but were transient | serum potassium level (observation) [3, 7]: no elevated serum potassium level observed; also recorded: elevated serum potassium levels were not observed | average steady-state AUC0-24 (AUCtau) [3, 7]: 2863 ± 822 ng·h/mL | average steady-state AUC0-24 (AUCtau) ([3]; healthy subjects, multiple doses 5.0 mg/day): 6373 ± 1026 ng·h/mL | AUC individual variation: highest AUC vs lowest AUC subject ([3]; healthy volunteers, capsule, multiple doses 2.5 mg daily): 2.37 times | AUC ([4]; 0.5 mg, mean AUC plus the standard deviation at 0.5 mg, read-out: upper limit of AUC that is safe): 885 ng·h/mL | AUC ([4]; 0.5 mg, mean AUC plus twice the standard deviation at 0.5 mg, read-out: upper limit of AUC that is safe): 1120 ng·h/mL | AUC ([4]; 0.5 mg/day, administered for one day at 0.5 mg/day, read-out: steady-state AUCtau): ≥ 106 ng·h/mL | AUC ([4]; 0.5 mg/day, multiple doses 0.5 mg/day, read-out: average steady-state AUCtau): 652 ± 232 ng·h/mL | AUC ([4]; 2.5 mg, mean AUC plus the standard deviation at 2.5 mg, read-out: upper limit of AUC that is safe): 2890 ng·h/mL | AUC ([4]; 2.5 mg, mean AUC plus twice the standard deviation at 2.5 mg, read-out: upper limit of AUC that is safe): 3170 ng·h/mL | AUC ([4]; 2.5 mg/day, multiple doses 2.5 mg/day, read-out: average safe steady-state AUCtau): 2610 ± 280 ng·h/mL | UACR decreased ([5]; 0.5 mg/day): 58.9% | UACR decreased ([5]; 2.5 mg/day): 50.7% | UACR decreased compared to the baseline ([5]; administered for one day at 0.5 mg/day): ≥ 30.5% | AUC individual variation: highest AUC vs lowest AUC subject ([5]; capsule, multiple doses 2.5 mg daily): 2.27 times | AUC individual variation: highest AUC vs lowest AUC subject ([5]; capsules, multiple doses 0.5 mg daily): 2.14 times | Predicated AUCtau ([5]; dose 0.1 mg): 130.5 ng·h/mL | Predicated AUCtau ([5]; dose 0.15 mg): 195.8 ng·h/mL | Predicated AUCtau ([5]; dose 0.2 mg): 261 ng·h/mL | Predicated AUCtau ([5]; dose 0.25 mg): 326.3 ng·h/mL | Predicated AUCtau ([5]; dose 0.3 mg): 391.5 ng·h/mL | Predicated AUCtau ([5]; dose 1.0 mg): 1305 ng·h/mL | Predicated AUCtau ([5]; dose 2.0 mg): 2610 ng·h/mL | Predicated AUCtau ([5]; dose 2.5 mg): 3262.5 ng·h/mL | serum potassium level (observation) ([5]; multiple doses 0.5 mg/day): no elevated serum potassium level was observed | blood pressures and UACR (observation) ([5]; multiple doses 0.5 mg/day or 2.5 mg/day): significantly decrease in blood pressures and urine albumin-to-creatinine ratio (UACR) | serum potassium level (observation) ([5]; multiple doses 2.5 mg/day): serum potassium levels were elevated; also recorded: mild increase of the serum potassium level was observed in one subject; also recorded: In one subject, the serum potassium level slightly increased | permeation rate [6]: medium | solubility in water [6]: insoluble in water
